The term IC50 denotes the concentration that inhibits the measured activity by half.

Where a name gives a salt, the structure may show the parent alone. Where only a bound is given, the exact number is not on record here.

Sequence of TrkA (P04629 33-796): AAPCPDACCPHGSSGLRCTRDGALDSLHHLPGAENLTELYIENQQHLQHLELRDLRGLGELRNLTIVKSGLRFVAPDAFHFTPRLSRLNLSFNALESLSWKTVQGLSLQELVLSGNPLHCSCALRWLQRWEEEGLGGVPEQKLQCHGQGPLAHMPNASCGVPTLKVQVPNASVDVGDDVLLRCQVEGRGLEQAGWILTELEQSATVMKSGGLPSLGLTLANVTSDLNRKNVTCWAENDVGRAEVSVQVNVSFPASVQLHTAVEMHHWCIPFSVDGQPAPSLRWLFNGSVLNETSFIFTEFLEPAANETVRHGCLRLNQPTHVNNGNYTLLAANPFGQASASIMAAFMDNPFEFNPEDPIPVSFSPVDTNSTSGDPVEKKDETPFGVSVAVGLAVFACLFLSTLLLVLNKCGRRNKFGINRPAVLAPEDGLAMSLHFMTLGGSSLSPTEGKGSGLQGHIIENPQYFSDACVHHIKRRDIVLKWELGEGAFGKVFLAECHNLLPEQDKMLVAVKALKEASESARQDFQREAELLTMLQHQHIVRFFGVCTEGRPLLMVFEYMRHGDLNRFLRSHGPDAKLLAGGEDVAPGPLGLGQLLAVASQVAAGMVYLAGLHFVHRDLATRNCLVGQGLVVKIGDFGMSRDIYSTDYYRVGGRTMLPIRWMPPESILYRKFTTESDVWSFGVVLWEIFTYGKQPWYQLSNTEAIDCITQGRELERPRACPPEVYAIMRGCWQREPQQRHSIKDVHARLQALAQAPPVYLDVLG

The experiment concerns the target TrkA (Homo sapiens (Human), UniProt P04629). Kind of experiment: TrkA Omnia Assay. As to conditions: averaged IC50; 20 nM enzyme, 500 μM ATP, 10 μM peptide substrate. The class given is biochemical. The essentials: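 Continuous fluorescent kinase read-out (ex 360 nm, em 485 nm) over 70 min, with initial rates fitted to 4- or 5-parameter logistic curves for IC50. Final conditions: 500 μM ATP, 10 μM Omnia Tyr Peptide #4, 20 nM TrkA, MOPS pH 7.5 buffer with MgCl2 and Triton X-100; enzyme and compound preincubated 10 min at ambient temperature.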
For the compound `COCCN1C[C@@H](NC(=O)Nc2c(C)c(OCC(F)(F)F)nn2-c2ccccc2)[C@H](c2cc(F)cc(F)c2)C1` [Example 477, 1-((3S,4R)-4-(3,5-difluorophenyvl)-1-(2-methoxyethyl)pyrrolidin-3-yl)-3-(4-methyl-1-phenyl-3-(2,2,2-trifluoroethoxy)-1H-pyrazol-5-yl)urea], the IC50 was < 100 nM.

For `COCCN1C[C@@H](NC(=O)Nc2c(C#N)c(C)nn2-c2ccccc2)[C@H](c2ccc(F)c(F)c2)C1` [Example 66, 1-(4-cyano-3-methyl-1-phenyl-1H-pyrazol-5-yl)-3-((3S,4R)-4-(3,4-difluorophenyl)-1-(2-methoxyethyl)pyrrolidin-3-yl)urea], the IC50 was < 100 nM.

On to `COCCN1C[C@@H](NC(=O)Nc2c(C(N)=O)c(C)nn2-c2ccccc2)[C@H](c2cc(F)cc(F)c2)C1` [Example 626, 5-(3-((3S,4R)-4-(3,5-difluorophenyl)-1-(2-methoxyethyl)pyrrolidin-3-yl)ureido)-3-methyl-1-phenyl-1H-pyrazole-4-carboxamide], for which the IC50 was < 100 nM.

For `COCCN1C[C@@H](NC(=O)Nc2c(C)c(-c3cncnc3)nn2-c2ccccc2)[C@H](c2ccc(F)c(F)c2)C1` [Example 504, 1-((3S,4R)-4-(3,4-difluorophenyl)-1-(2-methoxyethyl)pyrrolidin-3-yl)-3-(4-methyl-1-phenyl-3-(pyrimidin-5-yl)-1H-pyrazol-5-yl)urea], the half-inhibitory concentration (IC50) was < 100 nM. As for `COCCN1C[C@@H](NC(=O)Nc2c(C)c(-c3cnn(CCOC)c3)nn2-c2ccccc2)[C@H](c2cccc(F)c2)C1` [Example 383, 1-((3S,4R)-4-(3-fluorophenyl)-1-(2-methoxyethyl)pyrrolidin-3-yl)-3-(1′-(2-methoxyethyl)-4-methyl-1-phenyl-1H,1′H-[3,4′-bipyrazol]-5-yl)urea], the 50% inhibitory concentration (IC50) is < 100 nM. Then `COCCN1C[C@@H](NC(=O)Nc2c(C#N)c(CC#N)nn2-c2ccccc2)[C@H](c2ccc(F)c(F)c2)C1` [Example 70, 1-(4-cyano-3-(cyano-methyl)-1-phenyl-1H-pyrazol-5-yl)-3-((3S,4R)-4-(3,4-difluorophenyl)-1-(2-methoxyethyl)pyrrolidin-3-yl)urea], with < 100 nM; and `COCCN1C[C@@H](NC(=O)Nc2c(Cl)c(C(F)(F)CO)nn2-c2ccccc2)[C@H](c2cc(F)cc(F)c2)C1` [Example 410, 1-(4-chloro-3-(1,1-difluoro-2-hydroxyethyl)-1-phenyl-1H-pyrazol-5-yl)-3-((3S,4R)-4-(3,5-difluorophenyl)-1-(2-methoxyethyl)pyrrolidin-3-yl)urea], with < 100 nM; and `COCCN1C[C@@H](NC(=O)Nc2c(C)c(-c3cncc(F)c3)nn2-c2ccccc2)[C@H](c2ccc(F)c(F)c2)C1` [Example 489, 1-((3S,4R)-4-(3,4-difluorophenyl)-1-(2-methoxyethyl)pyrrolidin-3-yl)-3-(3-(5-fluoropyridin-3-yl)-4-methyl-1-phenyl-1H-pyrazol-5-yl)urea], with < 100 nM.

As to `COCCN1C[C@@H](NC(=O)Nc2cc(-c3cccc(F)c3)nn2C)[C@H](c2ccc(F)c(F)c2)C1` [Example 114, 1-((3S,4R)-4-(3,4-difluorophenyl)-1-(2-methoxyethyl)pyrrolidin-3-yl)-3-(3-(3-fluoro-phenyl)-1-methyl-1H-pyrazol-5-yl)urea], the IC50 is < 100 nM. Take `COCCN1C[C@@H](NC(=O)Nc2c(Cl)c(C3CCOCC3)nn2-c2ccccc2)[C@H](c2ccc(F)cc2)C1` [Example 570, 1-(4-chloro-1-phenyl-3-(tetrahydro-2H-pyran-4-yl)-1H-pyrazol-5-yl)-3-((3S,4R)-4-(4-fluorophenyl)-1-(2-methoxyethyl)pyrrolidin-3-yl)urea]: the half-inhibitory concentration (IC50) was < 100 nM. Under `COCCN1C[C@@H](NC(=O)Nc2c(C)c(OC[C@H](C)O)nn2-c2ccccc2)[C@H](c2cc(F)cc(F)c2)C1` [Example 537, 1-((3S,4R)-4-(3,5-difluorophenyl)-1-(2-methoxyethyl)pyrrolidin-3-yl)-3-(3-((S)-2-hydroxypropoxy)-4-methyl-1-phenyl-1H-pyrazol-5-yl)urea dihydrochloride] stands < 100 nM; under `COCCN1C[C@@H](NC(=O)Nc2c(Br)c(OC[C@@H](C)O)nn2-c2ccccc2)[C@H](c2ccc(F)cc2)C1` [Example 377, 1-(4-bromo-3-((R)-2-hydroxypropoxy)-1-phenyl-1H-pyrazol-5-yl)-3-((3S,4R)-4-(4-fluorophenyl)-1-(2-methoxyethyl)pyrrolidin-3-yl)urea], < 100 nM.

Consider `COCCN1C[C@@H](NC(=O)Nc2c(C(C)C)c(-c3cnn(C)c3)nn2-c2ccccc2)[C@H](c2ccc(F)c(F)c2)C1` [Example 310, 1-((3S,4R)-4-(3,4-difluorophenyl)-1-(2-methoxyethyl)pyrrolidin-3-yl)-3-(4-isopropyl-1′-methyl-1-phenyl-1H,1′H-[3,4′-bipyrazol]-5-yl)urea], for which the half-inhibitory concentration (IC50) is 100 to 1000 nM.

In the case of `COCCN1C[C@@H](NC(=O)Nc2cc(COC)nn2-c2ccccc2)[C@H](c2ccccc2)C1` [Example 100, 1-((3S,4R)-1-(2-methoxy-ethyl)-4-phenylpyrrolidin-3-yl)-3-(3-(methoxy-methyl)-1-phenyl-1H-pyrazol-5-yl)urea], the IC50 was 100 to 1000 nM. Under `COCCN1C[C@@H](NC(=O)Nc2c(C)c([C@H]3CCCN3C(C)=O)nn2-c2ccccc2)[C@H](c2ccc(F)c(F)c2)C1` [Example 596, 1-(3-((R)-1-acetylpyrrolidin-2-yl)-4-methyl-1-phenyl-1H-pyrazol-5-yl)-3-((3S,4R)-4-(3,4-difluorophenyl)-1-(2-methoxyethyl)pyrrolidin-3-yl)urea] stands < 100 nM.

Regarding `COCCN1C[C@@H](NC(=O)Nc2c(Br)c(-c3ccccc3)nn2-c2ccccc2)[C@H](c2ccc(F)cc2)C1` [Example 428, 1-(4-bromo-1,3-diphenyl-1H-pyrazol-5-yl)-3-((3S,4R)-4-(4-fluorophenyl)-1-(2-methoxyethyl)pyrrolidin-3-yl)urea], the half-inhibitory concentration (IC50) is < 100 nM.

As for `COCCN1CC(c2cnn(C)c2)[C@H](NC(=O)Nc2c(Br)c(C)nn2-c2ccccc2)C1` (stereo partly shown) [Example 332], the IC50 lay within 100 to 1000 nM. For `COCCN1C[C@@H](NC(=O)Nc2c(Br)c(COC3CCNCC3)nn2-c2ccccc2)[C@H](c2ccc(F)c(F)c2)C1` [Example 591, 1-(4-bromo-1-phenyl-3-((piperidin-4-yloxy)methyl)-1H-pyrazol-5-yl)-3-((3S,4R)-4-(3,4-difluorophenyl)-1-(2-methoxyethyl)pyrrolidin-3-yl)urea dihydrochloride], the half-maximal inhibitory concentration (IC50) is < 100 nM. Then `COCCN1C[C@@H](NC(=S)Nc2c(Br)c(C)nn2-c2ccccc2)[C@H](c2ccc(F)c(F)c2)C1` [Example 630, 1-(4-bromo-3-methyl-1-phenyl-1H-pyrazol-5-yl)-3-((3S,4R)-4-(3,4-difluorophenyl)-1-(2-methoxyethyl)pyrrolidin-3-yl)thiourea], with < 100 nM. Turning to `CCOc1ncccc1N1C[C@@H](NC(=O)Nc2c(C)c(OCC)nn2-c2ccccc2)[C@H](c2ccccc2)C1` [Example 243, 1-(3-ethoxy-4-methyl-1-phenyl-1H-pyrazol-5-yl)-3-((3S,4R)-1-(2-ethoxypyridin-3-yl)-4-phenylpyrrolidin-3-yl)urea], the IC50 was < 100 nM. In the case of `CC[C@@H](O)COc1nn(-c2ccccc2)c(NC(=O)N[C@@H]2CN(CCOC)C[C@H]2c2ccc(F)c(F)c2)c1C` [Example 380, 1-((3S,4R)-4-(3,4-difluorophenyl)-1-(2-methoxyethyl)pyrrolidin-3-yl)-3-(3-((R)-2-hydroxybutoxy)-4-methyl-1-phenyl-1H-pyrazol-5-yl)urea], the IC50 was < 100 nM. For `COCCN1CC(c2sc(C)nc2C)[C@H](NC(=O)Nc2c3c(nn2-c2ccccc2)CCC3)C1` (stereo partly drawn) [Example 45, 1-((3,4-trans)-4-(2,4-dimethylthiazol-5-yl)-1-(2-methoxyethyl)pyrrolidin-3-yl)-3-(2-phenyl-2,4,5,6-tetrahydrocyclopenta[c]pyrazol-3-yl)urea], the 50% inhibitory concentration (IC50) was 1000 to 10000 nM.

The compound `COCCN1C[C@@H](NC(=O)Nc2c(Cl)c(-c3cnn(C)c3)nn2C)[C@H](c2ccc(F)c(F)c2)C1` [Example 567, 1-(4-chloro-1,1′-dimethyl-1H, 1′H-[3,4′-bipyrazol]-5-yl)-3-((3S,4R)-4-(3,4-difluorophenyl)-1-(2-methoxyethyl)pyrrolidin-3-yl)urea] gave a 50% inhibitory concentration (IC50) of 100 to 1000 nM.

Turning to `COCCN1C[C@@H](NC(=O)Nc2c3ccccc3nn2-c2ccccc2)[C@H](c2ccccc2)C1` [Example 389], the IC50 was < 100 nM. In turn, `COc1ncccc1N1C[C@@H](NC(=O)Nc2c(Br)c(-c3ccccc3)nn2-c2ccccc2)[C@H](c2ccccc2)C1` [Example 247, 1-(4-bromo-1,3-diphenyl-1H-pyrazol-5-yl)-3-((3S,4R)-1-(2-methoxypyridin-3-yl)-4-phenylpyrrolidin-3-yl)urea] showed an IC50 of 100 to 1000 nM. Under `COCCN1C[C@@H](NC(=O)Nc2c(C)c(OC[C@H](C)O[Si](C)(C)C(C)(C)C)nn2-c2ccccc2)[C@H](c2cc(F)c(F)c(F)c2)C1` [Example 400, 1-(3-((S)-2-(tert-butyldimethylsilyloxy)propoxy)-4-methyl-1-phenyl-1H-pyrazol-5-yl)-3-((3S,4R)-1-(2-methoxyethyl)-4-(3,4,5-trifluorophenyl)pyrrolidin-3-yl)urea] stands 100 to 1000 nM; under `CCOc1nn(-c2ccccc2)c(NC(=O)N[C@@H]2CN(c3c[nH]nc3C)C[C@H]2c2ccc(F)c(F)c2)c1C` [Example 219, 1-((3S,4R)-4-(3,4-difluorophenyl)-1-(3-methyl-1H-pyrazol-4-yl)pyrrolidin-3-yl)-3-(3-ethoxy-4-methyl-1-phenyl-1H-pyrazol-5-yl)urea], < 100 nM; under `COCCN1C[C@@H](NC(=O)Nc2c(C)c(OS(=O)(=O)C(F)(F)F)nn2-c2ccccc2)[C@H](c2ccc(F)c(F)c2)C1` [Example 525, 5-(3-((3S,4R)-4-(3,4-difluorophenyl)-1-(2-methoxyethyl)pyrrolidin-3-yl)ureido)-4-methyl-1-phenyl-1H-pyrazol-3-yl trifluoromethanesulfonate], < 100 nM.

(Values after patent US10323022B2, “Pyrrolidinyl urea, pyrrolidinyl thiourea and pyrrolidinyl guanidine compounds as TrkA kinase inhibitors” (Array BioPharma Inc., priority 2011, dated 2019).)
